In ChEMBL document CHEMBL4699503, “Structural basis for producing selective MAP2K7 inhibitors” (Bioorg Med Chem Lett, 2020):

Biological target: T1, Dual specificity mitogen-activated protein kinase kinase 7 (Homo sapiens, UniProt O14733)
T1 sequence (O14733 whole entry): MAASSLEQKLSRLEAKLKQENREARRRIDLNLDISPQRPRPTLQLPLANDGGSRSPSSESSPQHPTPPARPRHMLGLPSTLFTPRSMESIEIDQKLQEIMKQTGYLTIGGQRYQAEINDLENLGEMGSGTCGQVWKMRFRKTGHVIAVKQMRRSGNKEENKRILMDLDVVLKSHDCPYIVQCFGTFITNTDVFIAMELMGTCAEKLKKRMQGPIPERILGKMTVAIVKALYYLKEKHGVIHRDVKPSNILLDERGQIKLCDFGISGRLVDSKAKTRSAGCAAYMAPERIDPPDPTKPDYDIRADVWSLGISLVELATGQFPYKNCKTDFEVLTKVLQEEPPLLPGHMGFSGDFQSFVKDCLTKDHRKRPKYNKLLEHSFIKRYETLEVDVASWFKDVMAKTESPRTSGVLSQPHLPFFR
Test: Inhibition of MAP2K7 (unknown origin) using JNK peptide KFMMTPYVVTR incubated for 30 mins measured by multimode reader based ADP-glo assay

- IC50: 6.5 nM
SMILES: C#CCNC(=O)c1cc(NC(=O)C=C)cc(-c2n[nH]c3ccccc23)c1
